Assay: Inhibition of ABCB1 (unknown origin) expressed in human A2780 ADR cells assessed as potentiation of daunorubicin-induced cytotoxicity measured after 72 hrs by MTT assay

In the case of `N#Cc1ccc(Nc2cc(Nc3ccccc3O)nc(-c3ccccc3)n2)cc1`, the EC50 is reported as 34400 nM.

Assay: Inhibition of ABCG2 (unknown origin) expressed in MDCK-II cells assessed as potentiation of SN-38-induced cytotoxicity measured after 72 hrs by MTT assay

Going from `N#Cc1ccc(Nc2cc(Nc3ccccc3)nc(-c3ccccc3)n2)cc1` to `N#Cc1ccc(Nc2cc(NCc3ccccc3)nc(-c3ccccc3)n2)cc1`, the EC50 falls from 44 nM to 26 nM (1.7-fold). The second is the more potent here.

`N#Cc1ccc(Nc2cc(Nc3cccc(O)c3)nc(-c3ccccc3)n2)cc1` and `N#Cc1ccc(Nc2cc(Nc3ccc(O)cc3)nc(-c3ccccc3)n2)cc1` are within 1.5-fold of each other in EC50: 181 nM for the first, 171 nM for the second.

First: N#Cc1ccc(Nc2cc(Nc3ccc(C#N)cc3)nc(-c3ccccc3)n2)cc1
Second: N#Cc1ccc(Nc2cc(Nc3ccccc3O)nc(-c3ccccc3)n2)cc1
The EC50 of the first is 1.6-fold higher: 231 nM for the first, 147 nM for the second.

Going from `N#Cc1ccc(Nc2cc(NCc3cccnc3)nc(-c3ccccc3)n2)cc1` to `N#Cc1ccc(Nc2cc(NCc3ccncc3)nc(-c3ccccc3)n2)cc1`, the EC50 rises from 44 nM to 73 nM (1.7-fold).

First: N#Cc1ccc(Nc2cc(NCc3ccccn3)nc(-c3ccccc3)n2)cc1
Second: N#Cc1ccc(Nc2cc(NCCCc3ccccc3)nc(-c3ccccc3)n2)cc1
The EC50 of the first is 4.2-fold lower: 16 nM for the first, 67 nM for the second. The first is the more potent here.

Going from `N#Cc1ccc(Nc2cc(NCCCCc3ccccc3)nc(-c3ccccc3)n2)cc1` to `N#Cc1ccc(Nc2cc(-c3ccccc3)nc(-c3ccccc3)n2)cc1`, the EC50 falls from 187 nM to 41 nM (4.6-fold). The second is the more potent here.

`CNc1cc(Nc2ccc(C#N)cc2)nc(-c2ccccc2)n1` and `CC(C)Nc1cc(Nc2ccc(C#N)cc2)nc(-c2ccccc2)n1` are within 1.5-fold of each other in EC50: 22 nM for the first, 18 nM for the second.

First: CCCNc1cc(Nc2ccc(C#N)cc2)nc(-c2ccccc2)n1
Second: CCCCNc1cc(Nc2ccc(C#N)cc2)nc(-c2ccccc2)n1
The EC50 of the first is 2-fold lower: 15 nM for the first, 30 nM for the second.
